In ChEMBL document CHEMBL3611987, “Design and synthesis of conformationally constrained hydroxylated 4-phenyl-2-aryl chromenopyridines as novel and selective topoisomerase II-targeted antiproliferative agents” (Bioorg Med Chem, 2015):

Experiments:
[1] = molecular target: DNA topoisomerase 2-alpha (Homo sapiens) (UniProt P11388); assay: Inhibition of human DNA topoisomerase 2alpha assessed as relaxation of supercoiled pBR322 DNA at 100 uM after 30 mins using ethidium bromide staining by agarose gel electrophoresis
[2] = molecular target: DNA topoisomerase 2-alpha (Homo sapiens) (UniProt P11388); assay: Inhibition of human DNA topoisomerase 2alpha assessed as relaxation of supercoiled pBR322 DNA at 20 uM after 30 mins using ethidium bromide staining by agarose gel electrophoresis
[3] = molecular target: T1, DNA topoisomerase 1 (Homo sapiens) (UniProt P11387); assay: Inhibition of human recombinant DNA topoisomerase 1 assessed as relaxation of supercoiled pBR322 DNA at 100 uM after 30 mins using ethidium bromide staining by agarose gel electrophoresis
T1 sequence (whole entry): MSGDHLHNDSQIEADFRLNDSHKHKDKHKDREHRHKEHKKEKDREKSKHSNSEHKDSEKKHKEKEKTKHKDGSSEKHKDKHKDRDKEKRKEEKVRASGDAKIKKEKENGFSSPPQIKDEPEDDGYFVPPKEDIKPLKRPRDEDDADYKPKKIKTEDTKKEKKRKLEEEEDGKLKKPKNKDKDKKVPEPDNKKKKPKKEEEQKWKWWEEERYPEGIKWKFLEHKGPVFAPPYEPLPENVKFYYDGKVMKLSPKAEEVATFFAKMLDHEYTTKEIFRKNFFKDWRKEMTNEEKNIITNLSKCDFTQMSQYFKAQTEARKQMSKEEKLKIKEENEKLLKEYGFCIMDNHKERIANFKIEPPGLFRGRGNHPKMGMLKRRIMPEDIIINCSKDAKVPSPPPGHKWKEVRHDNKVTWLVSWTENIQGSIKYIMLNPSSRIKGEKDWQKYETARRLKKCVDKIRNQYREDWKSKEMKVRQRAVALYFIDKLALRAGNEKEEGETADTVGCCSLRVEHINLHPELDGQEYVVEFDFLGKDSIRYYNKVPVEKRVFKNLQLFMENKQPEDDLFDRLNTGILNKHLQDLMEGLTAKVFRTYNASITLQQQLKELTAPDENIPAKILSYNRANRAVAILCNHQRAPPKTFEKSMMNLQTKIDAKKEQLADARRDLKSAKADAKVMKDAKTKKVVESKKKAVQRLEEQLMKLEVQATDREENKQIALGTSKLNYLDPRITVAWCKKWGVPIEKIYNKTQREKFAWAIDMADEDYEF

DU-145 = assay: Cytotoxicity against human DU145 cells after 2 days by CCK8 assay; type: functional, cell-based; conditions: DU-145, 48 h
HCT-15 = assay: Cytotoxicity against human HCT15 cells after 2 days by CCK8 assay; type: functional, cell-based; conditions: HCT-15, 48 h
T47D = assay: Cytotoxicity against human T47D cells after 2 days by CCK8 assay; type: functional, cell-based; conditions: 48 h
[4] = Cytotoxicity against human MCF10A cells after 2 days by CCK8 assay; type: cell-based; conditions: MCF-10A, 48 h
[5] = molecular target: T1, DNA topoisomerase 1 (Homo sapiens); assay: Inhibition of human recombinant DNA topoisomerase 1 assessed as relaxation of supercoiled pBR322 DNA at 20 uM after 30 mins using ethidium bromide staining by agarose gel electrophoresis

DNA topoisomerase 2-alpha (Homo sapiens), sequence (P11388 whole entry): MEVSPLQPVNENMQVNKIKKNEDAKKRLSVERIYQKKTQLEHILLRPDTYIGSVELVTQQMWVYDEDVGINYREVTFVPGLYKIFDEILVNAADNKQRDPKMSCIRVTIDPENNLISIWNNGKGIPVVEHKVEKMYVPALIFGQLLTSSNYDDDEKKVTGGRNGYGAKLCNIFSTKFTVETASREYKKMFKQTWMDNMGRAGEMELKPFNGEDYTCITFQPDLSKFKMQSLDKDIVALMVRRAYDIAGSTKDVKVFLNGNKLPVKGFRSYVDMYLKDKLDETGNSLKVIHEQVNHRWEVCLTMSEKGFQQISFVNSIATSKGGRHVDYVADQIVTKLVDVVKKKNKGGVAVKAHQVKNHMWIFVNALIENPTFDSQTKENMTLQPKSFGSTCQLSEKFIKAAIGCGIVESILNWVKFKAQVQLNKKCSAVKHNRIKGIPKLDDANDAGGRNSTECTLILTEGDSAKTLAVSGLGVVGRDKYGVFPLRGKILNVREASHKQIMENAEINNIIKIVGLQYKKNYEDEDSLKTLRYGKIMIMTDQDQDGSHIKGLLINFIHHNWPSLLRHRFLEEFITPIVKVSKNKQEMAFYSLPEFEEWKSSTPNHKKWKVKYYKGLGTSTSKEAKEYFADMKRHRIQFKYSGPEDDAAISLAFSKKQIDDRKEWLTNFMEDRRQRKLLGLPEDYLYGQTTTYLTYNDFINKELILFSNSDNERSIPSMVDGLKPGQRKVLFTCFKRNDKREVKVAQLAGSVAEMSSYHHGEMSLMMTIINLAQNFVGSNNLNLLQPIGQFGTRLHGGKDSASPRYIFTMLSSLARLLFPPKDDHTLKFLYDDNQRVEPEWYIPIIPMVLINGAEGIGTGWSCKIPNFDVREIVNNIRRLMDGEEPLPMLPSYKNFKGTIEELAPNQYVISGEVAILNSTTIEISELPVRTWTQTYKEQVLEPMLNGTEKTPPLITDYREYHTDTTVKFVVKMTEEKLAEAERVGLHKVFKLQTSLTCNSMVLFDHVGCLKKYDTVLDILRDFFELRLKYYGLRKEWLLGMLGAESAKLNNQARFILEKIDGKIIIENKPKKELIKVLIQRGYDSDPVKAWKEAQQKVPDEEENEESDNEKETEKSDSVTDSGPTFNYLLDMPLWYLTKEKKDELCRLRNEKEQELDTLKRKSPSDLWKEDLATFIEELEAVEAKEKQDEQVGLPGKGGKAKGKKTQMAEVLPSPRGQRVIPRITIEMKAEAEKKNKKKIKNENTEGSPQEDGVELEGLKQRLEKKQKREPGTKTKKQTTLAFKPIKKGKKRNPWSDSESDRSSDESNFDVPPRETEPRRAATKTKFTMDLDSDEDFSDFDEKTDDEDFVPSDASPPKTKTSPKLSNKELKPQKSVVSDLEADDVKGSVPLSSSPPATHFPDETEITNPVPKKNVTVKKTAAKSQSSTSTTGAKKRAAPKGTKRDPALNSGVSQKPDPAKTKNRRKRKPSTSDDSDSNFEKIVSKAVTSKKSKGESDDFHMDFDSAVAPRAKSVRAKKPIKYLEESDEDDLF

Row | Compound | inhibition [1] | inhibition [2] | inhibition [3] | IC50 (DU-145) | IC50 (HCT-15) | IC50 (T47D) | IC50 [4] | inhibition [5]
1 | Oc1ccc(-c2cc(-c3cccc(O)c3)c3c(n2)-c2ccccc2OC3)cc1 | 93% | 1.8% | 5.3% | 2060 nM | 2980 nM | 2370 nM | 4640 nM | –
2 | Oc1ccc(-c2cc(-c3ccco3)nc3c2COc2ccccc2-3)cc1 | 95.6% | 6.8% | 0.5% | 4450 nM | 1230 nM | 850 nM | 6880 nM | –
3 | Oc1cccc(-c2cc(-c3ccccc3)nc3c2COc2ccccc2-3)c1 | 94.8% | 10.9% | 1.5% | 2330 nM | 3030 nM | 760 nM | 8520 nM | –
4 | Oc1ccccc1-c1cc(-c2ccccc2O)c2c(n1)-c1ccccc1OC2 | 78% | 47.9% | 2.4% | 4690 nM | 3580 nM | 2760 nM | 8760 nM | –
5 | Oc1cccc(-c2cc(-c3ccco3)nc3c2COc2ccccc2-3)c1 | 84.9% | 0% | 1.4% | 3100 nM | 4770 nM | 3590 nM | 8800 nM | –
6 | Oc1ccccc1-c1cc(-c2ccccc2)nc2c1COc1ccccc1-2 | 84.7% | 10% | 3.6% | 5010 nM | 3470 nM | 3820 nM | 8200 nM | –
7 | Oc1ccc(-c2cc(-c3ccsc3)nc3c2COc2ccccc2-3)cc1 | 100% | 18.1% | 0% | 390 nM | 1660 nM | 1900 nM | 5830 nM | –
8 | Oc1ccccc1-c1cc(-c2ccco2)nc2c1COc1ccccc1-2 | 91.5% | 17% | 3.9% | 2450 nM | 2010 nM | 2980 nM | 7980 nM | –
9 | CC[C@@]1(O)C(=O)OCc2c1cc1n(c2=O)Cc2cc3ccccc3nc2-1 [CAMPTOTHECIN] | – | – | – | – | 300 nM | 80 nM | 970 nM | –
10 | Oc1cccc(-c2cc(-c3cccc(O)c3)c3c(n2)-c2ccccc2OC3)c1 | 93.3% | 1.9% | 4.3% | 1580 nM | 4110 nM | 1770 nM | 5810 nM | –
11 | Oc1ccc(-c2cc(-c3ccccc3O)nc3c2COc2ccccc2-3)cc1 | 89.3% | 63.2% | 3.8% | > 50000 nM | 1560 nM | 1290 nM | 24200 nM | –
12 | Oc1ccc(-c2cc(-c3cccc(O)c3)nc3c2COc2ccccc2-3)cc1 | 93.5% | 7.6% | 1.8% | 810 nM | 550 nM | 670 nM | 2420 nM | –
13 | Oc1cccc(-c2cc(-c3ccsc3)nc3c2COc2ccccc2-3)c1 | 100% | 31.7% | 68.6% | 3000 nM | 1220 nM | 1180 nM | 7260 nM | 0%
14 | Oc1cccc(-c2cc(-c3cccs3)nc3c2COc2ccccc2-3)c1 | 99% | 41.2% | 6.6% | 860 nM | 3170 nM | 2240 nM | 6440 nM | –
15 | Oc1ccc(-c2cc(-c3cccs3)nc3c2COc2ccccc2-3)cc1 | 91.7% | 25.8% | 1% | 830 nM | 1520 nM | 1210 nM | 6240 nM | –
16 | Oc1ccccc1-c1cc(-c2cccs2)nc2c1COc1ccccc1-2 | 95.7% | 4.8% | 3.5% | 5970 nM | 1940 nM | 2720 nM | 5640 nM | –
17 | Oc1cccc(-c2cc(-c3ccccc3O)nc3c2COc2ccccc2-3)c1 | 88.6% | 33.7% | 2.4% | 6370 nM | 2110 nM | 3420 nM | 4610 nM | –
18 | Oc1ccc(-c2cc(-c3ccc(O)cc3)c3c(n2)-c2ccccc2OC3)cc1 | 97.2% | 10.3% | 2.8% | 3800 nM | 690 nM | 780 nM | 1900 nM | –
19 | COc1cccc2c1C(=O)c1c(O)c3c(c(O)c1C2=O)C[C@@](O)(C(=O)CO)C[C@@H]3O[C@H]1C[C@H](N)[C@H](O)[C@H](C)O1 [DOXORUBICIN] | – | – | – | 950 nM | – | 1880 nM | 1230 nM | –
20 | Oc1ccccc1-c1cc(-c2ccsc2)nc2c1COc1ccccc1-2 | 100% | 29.7% | 3.3% | 740 nM | 3170 nM | 2740 nM | 7170 nM | –
21 | c1ccc(-c2cc(-c3ccccc3)c3c(n2)-c2ccccc2OC3)cc1 | – | – | 0% | – | – | 14200 nM | 6580 nM | –
22 | Oc1cccc(-c2cc(-c3ccccc3O)c3c(n2)-c2ccccc2OC3)c1 | 92.1% | 4.8% | 3.3% | 630 nM | 1010 nM | 2170 nM | 3420 nM | –
23 | COc1cc([C@@H]2c3cc4c(cc3[C@@H](O[C@@H]3O[C@@H]5CO[C@@H](C)O[C@H]5[C@H](O)[C@H]3O)[C@H]3COC(=O)[C@H]23)OCO4)cc(OC)c1O [ETOPOSIDE] | – | – | – | 13100 nM | 2600 nM | 940 nM | 10100 nM | –
24 | Oc1ccc(-c2cc(-c3ccccc3O)c3c(n2)-c2ccccc2OC3)cc1 | 93.6% | 8% | 7.6% | 1950 nM | 1660 nM | 2090 nM | 2740 nM | –
25 | Oc1ccc(-c2cc(-c3ccccc3)nc3c2COc2ccccc2-3)cc1 | 94.1% | 16.1% | 2.1% | 1560 nM | 15100 nM | 1350 nM | 6350 nM | –
